The results in this text go back to ChEMBL document CHEMBL1137635, “Multiple antibiotics exert delayed effects against the Plasmodium falciparum apicoplast” (Antimicrob Agents Chemother, 2007).

Data set [1] relates to Plasmodium falciparum. The data set is described as follows: Antimalarial activity as 3rd generation parasitaemia after 96 hrs against chloroquine-sensitive Plasmodium falciparum 3D7 infected human erythrocytes at 1 uM 12-48 hrs post invasion. The class given is functional.
Data set [2] is described as follows: Tmax in patient with tuberculosis at 600 mg, po once daily for 15 to 18 days. The class given is ADME, organism-based. Conditions: human, in vivo.
Data set [3] relates to Plasmodium falciparum. The data set is described as follows: Antimalarial activity as 3rd generation ring-stage chloroquine-sensitive Plasmodium falciparum 3D7 after 48 hrs dose then 48 hrs drug-free. The class given is functional, organism-based. Conditions: 3D7, 48 h.
For data set [4], the system named is Plasmodium falciparum. The data set is described as follows: Antimalarial activity as 3rd generation parasitaemia after 96 hrs against chloroquine-sensitive Plasmodium falciparum 3D7 infected human erythrocytes at 1 uM 0-36 hrs post invasion. It counts as functional.
For data set [5], the system named is Plasmodium falciparum. The data set is described as follows: Antimalarial activity in chloroquine-sensitive ACP1-GFP-labeled Plasmodium falciparum 3D7 after 48 hrs at 2xIC50 dosed 96 hrs post infection. It counts as functional, organism-based.
A short description of data set [6]: Cmax in patient with tuberculosis at 600 mg, po once daily for 15 to 18 days. It counts as ADME, organism-based. Also on record: dose 600 mg, route oral. To be noted: human, in vivo.
Data set [7] deals with Plasmodium falciparum. The data set is described as follows: Antimalarial activity as 3rd generation parasitaemia after 96 hrs against chloroquine-sensitive Plasmodium falciparum 3D7 infected human erythrocytes at 1 uM 24-48 hrs post invasion. The class given is functional.
Data set [8] relates to Plasmodium falciparum. The data set is described as follows: Antimalarial activity as abnormal apicoplast morphology in chloroquine-sensitive ACP1-GFP-labeled Plasmodium falciparum 3D7 after 48 hrs at 2xIC50 dosed 96 hrs post infection. The class given is functional, organism-based.
The nature of data set [9]: Half life in patient with tuberculosis at 600 mg, po once daily for 15 to 18 days. The class given is ADME, organism-based. Conditions: human, in vivo.
Data set [10] deals with Plasmodium falciparum. The data set is described as follows: Antimalarial activity as 2nd generation ring-stage chloroquine-resistant Plasmodium falciparum W2 after 48 hrs by flow cytometry. The class given is functional, organism-based. Conditions: W2, 48 h. On the technique in general: A flow cytometer gives signals particle by particle.
Data set [11] concerns Plasmodium falciparum. The data set is described as follows: Antimalarial activity as segregation of apicoplasts against chloroquine-sensitive ACP1-GFP-labeled Plasmodium falciparum 3D7 schizont infected human erythrocytes at 1 uM 96 hrs post infection. It counts as functional, organism-based.
The test system of data set [12] is Plasmodium falciparum. The data set is described as follows: Antimalarial activity as arrested schizont maturation in chloroquine-sensitive Plasmodium falciparum 3D7 infected human erythrocytes after 48 hrs at 1 uM dosed 96 hrs post infection. It counts as functional, organism-based.
Data set [13] deals with Plasmodium falciparum. The data set is described as follows: Antimalarial activity as 3rd generation parasitaemia after 96 hrs against chloroquine-sensitive Plasmodium falciparum 3D7 infected human erythrocytes at 1 uM 0-12 hrs post invasion. It counts as functional.
Data set [14] relates to Plasmodium falciparum. The data set is described as follows: Antimalarial activity as 3rd generation parasitaemia after 96 hrs against chloroquine-sensitive Plasmodium falciparum 3D7 infected human erythrocytes at 1 uM 0-24 hrs post invasion. The class given is functional.
Data set [15] deals with Plasmodium falciparum. The data set is described as follows: Antimalarial activity as 3rd generation parasitaemia after 96 hrs against chloroquine-sensitive Plasmodium falciparum 3D7 infected human erythrocytes at 1 uM 24-36 hrs post invasion. The class given is functional.
Data set [16] has as its system Plasmodium falciparum. The data set is described as follows: Antimalarial activity as abnormal apicoplast morphology in chloroquine-sensitive ACP1-GFP-labeled Plasmodium falciparum 3D7 trophozoite infected human erythrocytes at 2xIC50 dosed 96 hrs post infection. It counts as functional.
The test system of data set [17] is Plasmodium falciparum. The data set is described as follows: Antimalarial activity as 2nd generation ring-stage chloroquine-sensitive Plasmodium falciparum 3D7 after 48 hrs by flow cytometry. It counts as functional, organism-based. To be noted: 3D7, 48 h.
For data set [18], the system named is Plasmodium falciparum. The data set is described as follows: Antimalarial activity as 3rd generation parasitaemia after 96 hrs against chloroquine-sensitive Plasmodium falciparum 3D7 infected human erythrocytes at 1 uM treated 12-24 hrs post invasion. The class given is functional.
The subject of data set [19] is Plasmodium falciparum. The data set is described as follows: Antimalarial activity as 3rd generation parasitaemia after 96 hrs against chloroquine-sensitive Plasmodium falciparum 3D7 infected human erythrocytes at 1 uM 36-48 hrs post invasion. The class given is functional.
For data set [20], the system named is Plasmodium falciparum. The data set is described as follows: Antimalarial activity as 3rd generation parasitaemia after 96 hrs against chloroquine-sensitive Plasmodium falciparum 3D7 infected human erythrocytes at 1 uM 12-36 hrs post invasion. It counts as functional.
The test system of data set [21] is Plasmodium falciparum. The data set is described as follows: Antimalarial activity as segregation of apicoplasts against chloroquine-sensitive Plasmodium falciparum 3D7 infected human erythrocytes at 1 uM 96 hrs post infection. The class given is functional, organism-based.
Data set [22] concerns Plasmodium falciparum. The data set is described as follows: Antimalarial activity as parasitaemia against chloroquine-sensitive ACP1-GFP-labeled Plasmodium falciparum 3D7 trophozoite infected human erythrocytes at 2xIC50 dosed 96 hrs post infection. It counts as functional.
The subject of data set [23] is Plasmodium falciparum. The data set is described as follows: Antimalarial activity as 3rd generation parasitaemia after 96 hrs against chloroquine-sensitive Plasmodium falciparum 3D7 infected human erythrocytes at 1 uM 0-48 hrs post invasion. The class given is functional.
In data set [24] the test system is Plasmodium falciparum. The data set is described as follows: Antimalarial activity as 3rd generation ring-stage chloroquine-resistant Plasmodium falciparum W2 after 48 hrs dose then 48 hrs drug-free. The class given is functional, organism-based. To be noted: W2, 48 h, read-out: IC50.
Data set [25] has as its system Plasmodium falciparum. The data set is described as follows: Antimalarial activity as 2nd generation parasitaemia after 48 hrs against chloroquine-sensitive Plasmodium falciparum 3D7 infected human erythrocytes at 6 uM 12-24 hrs post invasion. The class given is functional.
Data set [26] deals with Plasmodium falciparum. The data set is described as follows: Antimalarial activity as 2nd generation parasitaemia after 48 hrs against chloroquine-sensitive Plasmodium falciparum 3D7 infected human erythrocytes at 6 uM 36-48 hrs post invasion. The class given is functional.
For data set [27], the system named is Plasmodium falciparum. The data set is described as follows: (§1) Antimalarial activity as 2nd generation parasitaemia after 48 hrs against chloroquine-sensitive Plasmodium falciparum 3D7 infected human erythrocytes at 6 uM 0-24 hrs post invasion. It counts as functional.
In data set [28] the test system is Plasmodium falciparum. The data set is described as follows: Antimalarial activity as 2nd generation parasitaemia after 48 hrs against chloroquine-sensitive Plasmodium falciparum 3D7 infected human erythrocytes at 6 uM 24-48 hrs post invasion. The class given is functional.
For data set [29], the system named is Plasmodium falciparum. The data set is described as follows: Antimalarial activity as trophozoite arrest after 24 hrs against chloroquine-sensitive Plasmodium falciparum 3D7 infected human erythrocytes at 6 uM 96 hrs post infection. The class given is functional, organism-based.
For data set [30], the system named is Plasmodium falciparum. The data set is described as follows: Antimalarial activity as 2nd generation parasitaemia after 48 hrs against chloroquine-sensitive Plasmodium falciparum 3D7 infected human erythrocytes at 6 uM 0-12 hrs post invasion. The class given is functional.
Data set [31] is described as follows: Tmax in patient with severe malaria at 200 mg, perorally. The class given is ADME, organism-based. To be noted: human, in vivo, po.
Data set [32] has as its system Plasmodium falciparum. The data set is described as follows: Antimalarial activity as 2nd generation parasitaemia after 48 hrs against chloroquine-sensitive Plasmodium falciparum 3D7 infected human erythrocytes at 6 uM 12-36 hrs post invasion. It counts as functional.
The test system of data set [33] is Plasmodium falciparum. The data set is described as follows: Antimalarial activity as 2nd generation parasitaemia after 48 hrs against chloroquine-sensitive Plasmodium falciparum 3D7 infected human erythrocytes at 6 uM 24-36 hrs post invasion. It counts as functional.
Data set [34] concerns Plasmodium falciparum. The data set is described as follows: Antimalarial activity as 2nd generation parasitaemia after 48 hrs against chloroquine-sensitive Plasmodium falciparum 3D7 infected human erythrocytes at 6 uM 12-48 hrs post invasion. The class given is functional.
Data set [35] relates to Plasmodium falciparum. The data set is described as follows: Antimalarial activity as 2nd generation parasitaemia after 48 hrs against chloroquine-sensitive Plasmodium falciparum 3D7 infected human erythrocytes at 6 uM 0-48 hrs post invasion. The class given is functional.
In data set [36] the test system is Plasmodium falciparum. The data set is described as §1. It counts as functional. The source holds these as a separate data set.

The source made the active and inactive calls. The rule behind the calls is not given here.

In general, Tmax refers to the time from dosing to the highest level. The term IC50 denotes the point on the concentration scale where inhibition reaches its midpoint. A word on the Cmax: it is the highest concentration seen after dosing. For orientation: half-life means the time in which the quantity being followed falls by half. High values mean slow decline, low ones rapid decline. With `C[C@H]1c2cccc(O)c2C(=O)C2=C(O)[C@]3(O)C(=O)C(C(N)=O)=C(O)[C@@H](N(C)C)[C@@H]3[C@@H](O)[C@@H]21.O` [DOXYCYCLINE], the Activity in the data set on Plasmodium falciparum [1] worked out at 13%; in the data set on Plasmodium falciparum [4] it was 24%; in the data set with Plasmodium falciparum [7], 87%; with Plasmodium falciparum [13], 89%; in the data set on Plasmodium falciparum [14] it was 69%; in the data set with Plasmodium falciparum [15] it was 41%. The Activity in the data set with Plasmodium falciparum [16] turned out to be 83.6%; with Plasmodium falciparum [18] it was 44%; with Plasmodium falciparum [19] it was 121%; in the data set on Plasmodium falciparum [20], 12%; with Plasmodium falciparum [22] it was 97.2%; with Plasmodium falciparum [23] it was 9%. Besides, the Tmax in [2] came to 2 h. The IC50 in the data set with Plasmodium falciparum [3] amounted to 453 nM; with Plasmodium falciparum [10], 3300 nM; in the data set with Plasmodium falciparum [17], 5320 nM; in the data set with Plasmodium falciparum [24] it was 211 nM. The outcome with Plasmodium falciparum [5], in the data set with Plasmodium falciparum [8], in the data set with Plasmodium falciparum [11] and with Plasmodium falciparum [21] was Active. Moreover, the Cmax in [6] came out at 6.9 µM. In addition, in data set [9], the half-life was 7 h. Moreover, the outcome with Plasmodium falciparum [12] was inactive.

Take `CO[C@H]1/C=C/O[C@@]2(C)Oc3c(C)c(O)c4c(O)c(c(/C=N/N5CCN(C)CC5)c(O)c4c3C2=O)NC(=O)/C(C)=C\C=C\[C@H](C)[C@H](O)[C@@H](C)[C@@H](O)[C@@H](C)[C@H](OC(C)=O)[C@@H]1C` [RIFAMPIN]: the Activity in the data set on Plasmodium falciparum [25] came to 36%; in the data set with Plasmodium falciparum [26], 93%; with Plasmodium falciparum [27], 16%; with Plasmodium falciparum [28], 25%; with Plasmodium falciparum [30] it was 65%; in the data set with Plasmodium falciparum [32], 13%. Also, the Activity with Plasmodium falciparum [33] worked out at 49%; with Plasmodium falciparum [34] it was 13%; in the data set with Plasmodium falciparum [35], 15%; in the data set on Plasmodium falciparum [36] it was 14%. Further, the IC50 was 2830 nM in the data set on Plasmodium falciparum [3], 274 nM in the data set on Plasmodium falciparum [10], 2990 nM in the data set with Plasmodium falciparum [17] and 528 nM with Plasmodium falciparum [24]. For the same compound, the outcome in the data set with Plasmodium falciparum [29] was Active. The Tmax in data set [31] worked out at 1 h.
